Source: US20230286970A1, “NOVEL OXADIAZOLE-BASED SELECTIVE HDAC6 INHIBITORS” (ITALFARMACO S.P.A., priority 2020, published 2023)

Key:
recombinant human HDAC6 = recombinant human HDAC6 (Homo sapiens (Human), UniProt Q9UBN7); assay: Enzymatic screening, HDAC6 inhibition (fluorogenic FdL_G substrate); assay type: biochemical
Protocol: (§1) For each test compound, 100× concentrated DMSO solutions at 8 doses were prepared and then diluted in assay buffer (25 mM Tris-HCl, pH 8, 130 mM NaCl, 0.05% Tween-20, 10% Glycerol) to obtain 5× concentrated solutions in relation to the final concentrations (typical final concentration range—6.4-200000 nM or 0.18-50000 nM, final DMSO content—1%). Then 10 μL solution of each test compound concentration were placed on a 96-well plate in triplicate and 15 μL of 3.33× concentrated enzyme solution in the assay buffer containing 3.33× concentrated BSA (final BSA concentration—2 mg/mL for HDAC4, HDAC5 and HDAC9 or 1 mg/mL for other isoforms) and in the case of HDAC6-3.33× concentrated TCEP (final TCEP concentration—200 μM) were added to each well. After a period of preincubation (incubation times and temperatures vary for different isoforms and are shown in table 1) 25 μL of solution containing the substrate were added. As substrate, FLUOR DE LYS® deacetylase substrate (Enzo Life Sciences, cat: BML-KI104, FdL), FLUOR DE LYS®-Green substrate (Enzo Life Sciences, cat: BML-KI572, FdL_G) or Boc-Lys(Tfa)-AMC (Bachem, cat: 4060676.005, Tfal)—2× concentrated solution in assay buffer were used. Following a reaction period (reaction times and temperatures vary for different isoforms and are reported in Table 1), 50 μL of the development solution consisting of concentrate FLUOR DE LYS® developer I (Enzo Life Sciences, ca: BML-KI105), diluted 200 times in buffer (50 mM Tris-HCl, pH 8, 137 mM NaCl, 2.7 mM KCl, 1 mM MgCl2) plus 2 μM TSA was added and, after 25 minutes at room temperature in the dark, using the Victor 1420 Multilabel Counter Perkin Elmer Wallac instrument, the fluorescence reading was carried out.

recombinant human HDAC1 = recombinant human HDAC1 (Homo sapiens (Human), UniProt Q13547); assay: Enzymatic screening, HDAC1 inhibition (fluorogenic FdL_G substrate); assay type: biochemical
Protocol: as §1

recombinant human HDAC1, sequence (Q13547 whole entry): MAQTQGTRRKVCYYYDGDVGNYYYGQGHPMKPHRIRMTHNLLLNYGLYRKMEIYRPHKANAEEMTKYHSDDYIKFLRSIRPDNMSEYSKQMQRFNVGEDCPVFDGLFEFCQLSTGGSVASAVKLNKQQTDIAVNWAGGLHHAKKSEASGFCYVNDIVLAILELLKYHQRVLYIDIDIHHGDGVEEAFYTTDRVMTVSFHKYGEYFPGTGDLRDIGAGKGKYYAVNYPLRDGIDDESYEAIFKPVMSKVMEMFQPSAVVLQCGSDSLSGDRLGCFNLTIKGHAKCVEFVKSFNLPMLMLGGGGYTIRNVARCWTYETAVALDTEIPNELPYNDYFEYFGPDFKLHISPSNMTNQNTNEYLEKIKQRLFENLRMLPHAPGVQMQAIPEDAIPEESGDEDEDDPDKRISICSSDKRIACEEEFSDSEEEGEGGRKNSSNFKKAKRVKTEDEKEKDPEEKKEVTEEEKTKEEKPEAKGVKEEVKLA
recombinant human HDAC6, sequence (Q9UBN7 whole entry, canonical isoform): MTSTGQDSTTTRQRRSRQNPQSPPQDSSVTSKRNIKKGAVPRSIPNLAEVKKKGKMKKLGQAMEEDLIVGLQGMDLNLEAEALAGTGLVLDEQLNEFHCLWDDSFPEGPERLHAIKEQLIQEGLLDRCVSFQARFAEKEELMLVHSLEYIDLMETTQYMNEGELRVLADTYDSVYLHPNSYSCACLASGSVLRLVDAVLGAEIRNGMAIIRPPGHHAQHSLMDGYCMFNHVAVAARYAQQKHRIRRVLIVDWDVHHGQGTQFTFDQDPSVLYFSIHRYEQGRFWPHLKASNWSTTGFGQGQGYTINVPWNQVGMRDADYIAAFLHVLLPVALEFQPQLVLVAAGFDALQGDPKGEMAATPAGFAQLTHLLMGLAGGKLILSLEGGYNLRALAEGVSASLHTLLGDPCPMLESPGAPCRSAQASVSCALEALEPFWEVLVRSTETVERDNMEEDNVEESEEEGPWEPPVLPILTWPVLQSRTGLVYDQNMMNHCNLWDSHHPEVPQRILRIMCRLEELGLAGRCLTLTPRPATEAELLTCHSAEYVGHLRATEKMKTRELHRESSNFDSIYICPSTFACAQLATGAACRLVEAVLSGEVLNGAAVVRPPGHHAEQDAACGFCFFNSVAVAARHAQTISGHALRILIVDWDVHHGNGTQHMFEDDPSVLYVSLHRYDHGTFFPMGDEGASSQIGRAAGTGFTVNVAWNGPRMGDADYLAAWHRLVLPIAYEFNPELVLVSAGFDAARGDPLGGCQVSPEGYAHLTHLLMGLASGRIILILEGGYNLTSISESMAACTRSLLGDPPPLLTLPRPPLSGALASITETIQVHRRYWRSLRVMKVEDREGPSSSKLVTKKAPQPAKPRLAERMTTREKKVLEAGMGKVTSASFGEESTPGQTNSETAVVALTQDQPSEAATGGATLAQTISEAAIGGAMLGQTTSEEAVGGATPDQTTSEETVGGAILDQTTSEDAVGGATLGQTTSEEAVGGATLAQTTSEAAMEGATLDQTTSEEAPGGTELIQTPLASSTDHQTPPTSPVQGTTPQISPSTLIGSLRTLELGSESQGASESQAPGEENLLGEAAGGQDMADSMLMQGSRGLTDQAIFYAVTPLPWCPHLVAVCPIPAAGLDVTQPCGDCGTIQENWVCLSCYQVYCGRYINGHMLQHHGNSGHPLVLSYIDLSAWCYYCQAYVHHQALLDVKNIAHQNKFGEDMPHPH

Structure (SMILES) | IC50 (recombinant human HDAC6) | IC50 (recombinant human HDAC1)
CC(C)(C)OC(=O)N1CCc2[nH]c(-c3cccc(-c4nnn(Cc5ccc(-c6nnc(C(F)F)o6)cc5)n4)c3)nc2C1 [compound 272, tert-butyl 2-(3-(2-(4-(5-(difluoromethyl)-1,3,4-oxadiazol-2-yl)benzyl)-2H-tetrazol-5-yl)phenyl)-1,4,6,7-tetrahydro-5H-imidazo[4,5-c]pyridine-5-carboxylate] | 0.407 µM | > 200 µM
CNc1ccc2cc(-c3nnn(Cc4ccc(-c5nnc(C(F)F)o5)c(F)c4)n3)ccc2n1 [compound 403, 6-[2-[[4-[5-(difluoromethyl)-1,3,4-oxadiazol-2-yl]-3-fluorophenyl]methyl]tetrazol-5-yl]-N-methylquinolin-2-amine] | 0.117 µM | 1000 µM
CNc1ccc2cc(-c3nnn(Cc4c(F)cc(-c5nnc(C(F)F)o5)cc4F)n3)ccc2n1 [compound 388, 6-(2-(4-(5-(difluoromethyl)-1,3,4-oxadiazol-2-yl)-2,6-difluorobenzyl)-2H-tetrazol-5-yl)-N-methylquinolin-2-amine] | 0.125 µM | 1000 µM
FC(F)c1nnc(-c2ccc(Cn3nnc(-c4ccc(Cl)cc4Cl)n3)cc2)o1 [compound 263, 2-(4-((5-(2,4-dichlorophenyl)-2H-tetrazol-2-yl)methyl)phenyl)-5-(difluoromethyl)-1,3,4-oxadiazole] | 0.489 µM | 
Nc1ncc2cc(-c3nnn(Cc4ccc(-c5nnc(C(F)F)o5)cc4F)n3)ccc2n1 [compound 424, 6-(2-(4-(5-(difluoromethyl)-1,3,4-oxadiazol-2-yl)-2-fluorobenzyl)-2H-tetrazol-5-yl)quinazolin-2-amine] | 0.076 µM | 
CNc1ccc2cc(-c3nnn(Cc4cc(F)c(-c5nnc(C(F)F)o5)cc4F)n3)ccc2n1 [compound 504, 6-(2-(4-(5-(difluoromethyl)-1,3,4-oxadiazol-2-yl)-2,5-difluorobenzyl)-2H-tetrazol-5-yl)-N-methylquinolin-2-amine] | 0.1 µM | 
C[C@@H]1CN(c2ccc(-c3nnn(Cc4ccc(-c5nnc(C(F)F)o5)cc4)n3)cn2)CCN1 [compound 159, (R)-2-(difluoromethyl)-5-(4-((5-(6-(3-methylpiperazin-1-yl)pyridin-3-yl)-2H-tetrazol-2-yl)methyl)phenyl)-1,3,4-oxadiazole] |  | > 200 µM
Nc1ncc2cc(-c3nnn(Cc4ccc(-c5nnc(C(F)F)o5)cc4)n3)ccc2n1 [compound 278, 6-(2-(4-(5-(difluoromethyl)-1,3,4-oxadiazol-2-yl)benzyl)-2H-tetrazol-5-yl)quinazolin-2-amine] | 0.186 µM | 
Fc1cc(-c2nnc(C(F)F)o2)ccc1Cn1nnc(-c2nccc3ccccc23)n1 [compound 431, 2-(difluoromethyl)-5-(3-fluoro-4-((5-(isoquinolin-1-yl)-2H-tetrazol-2-yl)methyl)phenyl)-1,3,4-oxadiazole] | 0.352 µM | 
Fc1cc(-c2nnc(C(F)F)o2)c(F)cc1Cn1nnc(-c2ccc3cnccc3c2)n1 [compound 428, 2-(2,5-difluoro-4-((5-(isoquinolin-6-yl)-2H-tetrazol-2-yl)methyl)phenyl)-5-(difluoromethyl)-1,3,4-oxadiazole] | 0.099 µM | 
Nc1ncc2cc(-c3nnn(Cc4ccc(-c5nnc(C(F)F)o5)cc4Cl)n3)ccc2n1 [compound 425, 6-(2-(2-chloro-4-(5-(difluoromethyl)-1,3,4-oxadiazol-2-yl)benzyl)-2H-tetrazol-5-yl)quinazolin-2-amine] | 0.545 µM | 
C[C@H]1CN(c2ccc(-c3nnn(Cc4ccc(-c5nnc(C(F)F)o5)cc4)n3)cn2)CCN1 [compound 182, (S)-2-(difluoromethyl)-5-(4-((5-(6-(3-methylpiperazin-1-yl)pyridin-3-yl)-2H-tetrazol-2-yl)methyl)phenyl)-1,3,4-oxadiazole] |  | > 200 µM
COc1ccc(-c2nnn(Cc3ccc(-c4nnc(C(F)F)o4)cc3)n2)cc1 [compound 204, 2-(difluoromethyl)-5-(4-((5-(4-methoxyphenyl)-2H-tetrazol-2-yl)methyl)phenyl)-1,3,4-oxadiazole] | 0.122 µM | 

Continued by falling IC50 (recombinant human HDAC6), values first:

IC50 (recombinant human HDAC6) | IC50 (recombinant human HDAC1) | Structure (SMILES)
0.072 µM |  | Fc1cc(-c2nnc(C(F)F)o2)ccc1Cn1nnc(-c2ccc3cnccc3c2)n1 [compound 427, 2-(difluoromethyl)-5-(3-fluoro-4-((5-(isoquinolin-6-yl)-2H-tetrazol-2-yl)methyl)phenyl)-1,3,4-oxadiazole]
0.072 µM |  | CC(c1ccc(-c2nnc(C(F)F)o2)cc1)n1cc(-c2ccc(N)nc2)nn1 (stereo not drawn) [Compd. 158, 5-(1-(1-(4-(5-(difluoromethyl)-1,3,4-oxadiazol-2-yl)phenyl)ethyl)-1H-1,2,3-triazol-4-yl)pyridin-2-amine]
0.059 µM |  | Nc1ncnc2cc(-c3cn(Cc4ccc(-c5nnc(C(F)F)o5)cc4Cl)nn3)ccc12 [compound 434, 7-(1-(2-chloro-4-(5-(difluoromethyl)-1,3,4-oxadiazol-2-yl)benzyl)-1H-1,2,3-triazol-4-yl)quinazolin-4-amine]
0.049 µM |  | Nc1cnc2ccc(-c3nnn(Cc4cc(F)c(-c5nnc(C(F)F)o5)cc4F)n3)cc2c1 [compound 398, 6-[2-[[4-[5-(difluoromethyl)-1,3,4-oxadiazol-2-yl]-2,5-difluorophenyl]methyl]tetrazol-5-yl]quinolin-3-amine]
0.044 µM |  | Nc1ncnc2sc(-c3cn(Cc4ccc(-c5nnc(C(F)F)o5)c(F)c4)nn3)cc12 [compound 417, 6-[1-({4-[5-(difluoromethyl)-1,3,4-oxadiazol-2-yl]-3-fluorophenyl}methyl)-1H-1,2,3-triazol-4-yl]thieno[2,3-d]pyrimidin-4-amine]
0.036 µM | > 200 µM | Nc1ccc(-c2cn(C(CO)c3ccc(-c4nnc(C(F)F)o4)cc3)nn2)cn1 (stereo not drawn) [Compd. 94, 2-(4-(6-aminopyridin-3-yl)-1H-1,2,3-triazol-1-yl)-2-(4-(5-(difluoromethyl)-1,3,4-oxadiazol-2-yl)phenyl)ethan-1-ol]
0.032 µM |  | Nc1cnc2ccc(-c3nnn(Cc4ccc(-c5nnc(C(F)F)o5)c(F)c4)n3)cc2c1 [compound 400, 6-[2-[[4-[5-(difluoromethyl)-1,3,4-oxadiazol-2-yl]-3-fluorophenyl]methyl]tetrazol-5-yl]quinolin-3-amine]
0.027 µM | > 200 µM | Cn1c(N)nc2cc(-c3nnn(Cc4ncc(-c5nnc(C(F)F)o5)cn4)n3)ccc21 [compound 252, 5-(2-((5-(5-(difluoromethyl)-1,3,4-oxadiazol-2-yl)pyrimidin-2-yl)methyl)-2H-tetrazol-5-yl)-1-methyl-1H-benzo[d]imidazol-2-amine]
0.027 µM |  | Nc1ncnc2cc(-c3cn(Cc4ccc(-c5nnc(C(F)F)o5)c(F)c4)nn3)ccc12 [compound 418, 7-(1-(4-(5-(difluoromethyl)-1,3,4-oxadiazol-2-yl)-3-fluorobenzyl)-1H-1,2,3-triazol-4-yl)quinazolin-4-amine]
0.023 µM |  | Nc1ncnc2cc(-c3cn(Cc4cc(F)c(-c5nnc(C(F)F)o5)cc4F)nn3)ccc12 [compound 433, 7-(1-(4-(5-(difluoromethyl)-1,3,4-oxadiazol-2-yl)-2,5-difluorobenzyl)-1H-1,2,3-triazol-4-yl)quinazolin-4-amine]
0.019 µM | > 1000 µM | Cn1c(N)nc2cc(-c3nnn(Cc4cc(F)c(-c5nnc(C(F)F)o5)cc4F)n3)ccc21 [compound 372, 5-[2-[[4-[5-(difluoromethyl)-1,3,4-oxadiazol-2-yl]-2,5-difluorophenyl]methyl]tetrazol-5-yl]-1-methylbenzimidazol-2-amine]
